According to ChEMBL document CHEMBL1127162, “1,4-Diacylpiperazine-2-(S)-[(N-aminoalkyl)carboxamides] as novel, potent substance P receptor antagonists” (Bioorg Med Chem Lett, 1993):

Each compound was assayed against Substance-P receptor (Homo sapiens, UniProt P25103) (assay: Inhibition of [125I]-Substance P binding to human NK1 receptors in CHO cells).
Format: cell-based

Chain of Substance-P receptor (P25103 whole entry): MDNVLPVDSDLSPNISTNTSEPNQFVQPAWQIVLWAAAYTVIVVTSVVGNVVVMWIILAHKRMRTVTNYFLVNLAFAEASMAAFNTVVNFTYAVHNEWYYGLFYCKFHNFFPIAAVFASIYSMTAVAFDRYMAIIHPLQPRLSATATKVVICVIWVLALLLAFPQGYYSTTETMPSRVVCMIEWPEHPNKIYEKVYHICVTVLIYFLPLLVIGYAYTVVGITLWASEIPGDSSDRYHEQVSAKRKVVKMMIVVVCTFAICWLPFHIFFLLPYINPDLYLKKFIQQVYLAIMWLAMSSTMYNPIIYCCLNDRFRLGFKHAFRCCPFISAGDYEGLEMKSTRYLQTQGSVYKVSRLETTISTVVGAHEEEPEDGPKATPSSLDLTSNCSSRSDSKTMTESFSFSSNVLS

Row | Compound | IC50
1 | CCCCCN(CCCCC)C(=O)N1CCN(C(=O)N(c2ccccc2)c2ccccc2)[C@H](C(=O)N(C)CCN(C)C)C1 | 930 nM
2 | CCCCCN(CCCCC)C(=O)N1CCN(C(=O)N(c2ccccc2)c2ccccc2)[C@@H](C(=O)O)C1 | 3000 nM
3 | CCCCCN(CCCCC)C(=O)N1CCN(C(=O)N(c2ccccc2)c2ccccc2)[C@H](C(=O)NCCNC(C)=O)C1 | 140 nM
4 | CCCCCN(CCCCC)C(=O)N1CCN(C(=O)N(c2ccccc2)c2ccccc2)[C@H](C(=O)NCCOC)C1 | 267 nM
5 | CCCCCN(CCCCC)C(=O)N1CCN(C(=O)N(c2ccccc2)c2ccccc2)[C@H](C(=O)N(C)CCN(C)Cc2cc(C(F)(F)F)cc(C(F)(F)F)c2)C1 | 1080 nM
6 | CCCCCN(CCCCC)C(=O)N1CCN(C(=O)N(c2ccccc2)c2ccccc2)[C@H](C(=O)N(C)CCN(C)Cc2cc(C)cc(C)c2)C1 | 200 nM
7 | CCCCCN(CCCCC)C(=O)N1CCN(C(=O)N(c2ccccc2)c2ccccc2)[C@H](CO)C1 | 280 nM
8 | CCCCCN(CCCCC)C(=O)N1CCN(C(=O)N(c2ccccc2)c2ccccc2)[C@H](C(=O)NCCN(C(C)C)C(C)C)C1 | 217 nM
9 | CCCCCN(CCCCC)C(=O)N1CCN(C(=O)N(c2ccccc2)c2ccccc2)[C@H](C(=O)N(C)CCN(C)Cc2ccccc2)C1 | 290 nM
10 | CCCCCN(CCCCC)C(=O)N1CCN(C(=O)N(c2ccccc2)c2ccccc2)CC1 | 500 nM
11 | CCCCCN(CCCCC)C(=O)N1CCN(C(=O)N(c2ccccc2)c2ccccc2)[C@H](C(=O)NCC(=O)O)C1 | 597 nM

Compounds with a lower IC50, results first:

Row | IC50 | Compound
12 | 130 nM | CCCCCN(CCCCC)C(=O)N1CCN(C(=O)N(c2ccccc2)c2ccccc2)[C@H](C(=O)O)C1
13 | 57 nM | CCCCCN(CCCCC)C(=O)N1CCN(C(=O)N(c2ccccc2)c2ccccc2)[C@H](C(=O)NCCN)C1
14 | 17 nM | CCCCCN(CCCCC)C(=O)N1CCN(C(=O)N(c2ccccc2)c2ccccc2)[C@H](C(=O)N(C)CCN(C)Cc2ccccc2OC)C1
15 | 11 nM | CCCCCN(CCCCC)C(=O)N1CCN(C(=O)N(c2ccccc2)c2ccccc2)[C@H](C(=O)NCCN(CC)CC)C1
16 | 41 nM | CCCCCN(CCCCC)C(=O)N1CCN(C(=O)N(c2ccccc2)c2ccccc2)[C@H](C(=O)NCCCN(CC)CC)C1
17 | 9 nM | CCCCCN(CCCCC)C(=O)N1CCN(C(=O)N(c2ccccc2)c2ccccc2)[C@H](C(=O)NCCN(C)Cc2ccccc2OC)C1
18 | 9 nM | CCCCCN(CCCCC)C(=O)N1CCN(C(=O)N(c2ccccc2)c2ccccc2)[C@H](C(=O)NCCNCc2ccccc2OC)C1
19 | 55 nM | CCCCCN(CCCCC)C(=O)N1CCN(C(=O)N(c2ccccc2)c2ccccc2)[C@H](C(=O)NCCN(C)C)C1
